Tested on: hippocampal cells
Assay: Real-time RT-PCR of genes induced by neurotrophin treatment of hippocampal cultures
Type: cell-based, rat
Settings: 50 ng/mL, RT-PCR vs control, average ± standard error
Method: The molecular genetics underlying BDNF-evoked plasticity were examined by expression profiling using cDNA microarrays on a population of hippocampal cells in vitro. Synaptic effects of BDNF are observed within 20 minutes of exposure (Levine et al. (1996) supra; Lessmann and Heumann (1998) supra; Schinder et al. (2000) supra). A 3-hour BDNF treatment has been used to identify several genes with roles in synaptic plasticity (Thakker-Varia et al. (2001) supra). Consequently, to reveal immediate, as well as downstream transcriptional changes, both acute (20 minutes) and longer treatment (3 hours) with BDNF were used herein. […] Two independent Atlas arrays were performed using RNA from hippocampal cells treated for either 20 minutes or 3 hours of BDNF (50 ng/mL) and control sister cultures.
Of those genes selected, the regulation of 7% at 20 minutes and 40% at 3 hours were validated, although the magnitude of regulation was not always identical to that observed on the microarray. To focus on genes specifically involved in plasticity, a related neurotrophin, nerve growth factor (NGF), not inducing synaptic plasticity (Levine et al. (1996) supra), served as a control.
Time-mated pregnant rats were sacrificed by CO2 asphyxiation in accordance with institutional guidelines for care and use of animals. Fetuses were removed by caesarean section and transferred to a sterile petri dish with phosphate-buffered saline. Fetal hippocampi were dissected from surrounding brain tissue and meninges were completely removed. Low-density cultures of dissociated embryonic day 18 rat hippocampi (Sprague Dawley from Hilltop Laboratories, Scottsdale, Pa.) were prepared using standard methods (Thakker-Varia et al. (2001) supra). Briefly, pooled tissue from each litter was mechanically dissociated in nutrient medium containing 7.5% fetal bovine serum and plated on poly-D-lysine-coated culture dishes at 350,000 cells/dish. Cultures were maintained in serum-free medium (Thakker-Varia et al., 2001) for 10-14 days and contained pure neurons.
Total cellular RNA was prepared from neuronal cultures treated with either BDNF (50 ng/ml) or vehicle (water) for either 20 min or 3 hr by the guanidine isothiocyanate method and CsCl gradients (Thakker-Varia et al., 2001). DNAse-treated total RNA was prepared from neurotrophin or control hippocampal cultures and reverse transcribed using gene specific primers. Radioactively labeled probes were then hybridized to Atlas Arrays Rat 1.2 (Clontech, Palo Alto, Calif.) according to manufacturer's protocol. Arrays were performed in duplicate with an independent source of RNA. The hybridization pattern was analyzed on a phosphorimager and normalized to the global hybridization signal. Analysis was performed by Clontech using 1.7-fold change as criteria for significance. All transcriptional changes were confirmed by real time RT-PCR on independent samples (see below).
cDNA (100 μl) was prepared from 2 μg control or BDNF-treated RNA using random primers and Superscript II reverse transcriptase. 25 μl PCR reactions were then carried out using gene specific primers designed by Primer Express software and TaqMan MGB probes (Applied Biosystems 7000 Sequence Detection System, Foster City, Calif.). Duplicate wells were included for each condition and primer pair. Primers specific to the housekeeping gene, glyceraldehyde-3-phosphate dehydrogenase (GAPDH) were used as an internal control. Data analysis was performed according to the protocol provided by Applied Biosystems.

BDNF: neurotrophin, 50 ng/ml, Preprotech; induces synaptic plasticity in hippocampal neurons
Fold Change Arc (3 Hour BDNF Treatment): 34.8 ± 4.3 fold | Fold Change CyclinD1 (3 Hour BDNF Treatment): 3.3 ± 0.5 fold | Fold Change EGR1 (3 Hour BDNF Treatment): 6.6 ± 0.9 fold | Fold Change Fra2 (3 Hour BDNF Treatment): 2.3 ± 0.4 fold | Fold Change Kv + 1.1 (3 Hour BDNF Treatment): 1.4 ± 0.1 fold | Fold Change Na + ch (3 Hour BDNF Treatment): 1.8 ± 0.2 fold | Fold Change PTP1B (3 Hour BDNF Treatment): 1.4 ± 0.1 fold | Fold Change SSTR4 (3 Hour BDNF Treatment): 1.7 ± 0.1 fold | Fold Change SgII (3 Hour BDNF Treatment): 5.1 ± 1.2 fold | Fold Change VGF (3 Hour BDNF Treatment): 6.5 ± 1.5 fold | Fold Change c-fos (3 Hour BDNF Treatment): 2.3 ± 0.4 fold | Fold Change NPY (3 Hour BDNF Treatment, n = 5): 1.9 ± 0.3 fold | Fold Change UNC5H2 (3 Hour BDNF Treatment, n = 5): 2.2 ± 0.6 fold | Fold Change Arc (20 Minute BDNF Treatment): 13.7 ± 5.0 fold | Fold Change EGR1 (20 Minute BDNF Treatment): 4.3 ± 0.8 fold | Fold Change c-fos (20 Minute BDNF Treatment): 2.2 ± 0.4 fold

— patent US20050272040A1, “Method for increasing synaptic growth or plasticity” (priority 2002, published 2005)
